Measurements reported in publication PMC5218480 (PLoS ONE, 2017).

System: MV-4-11 cells
Experiment: Gene expression microarray analysis (Affymetrix PrimeView) and GSEA
Format: cell-based, human
Design: RFU PODN (11730768_x_at) / Fold change /veh PODN (11730768_x_at) / RFU LINC00158 (11744669_a_at) / Fold change /veh LINC00158 (11744669_a_at) / RFU DUSP10 (11751237_a_at) / Fold change /veh DUSP10 (11751237_a_at) / RFU ID3 (11757404_x_at) / Fold change /veh ID3 (11757404_x_at) / RFU PLEKHG5 (11737974_s_at) / Fold change /veh PLEKHG5 (11737974_s_at) / RFU LRRC4B (11730491_at) / Fold change /veh LRRC4B (11730491_at) / RFU GIMAP4 (11747438_a_at) / Fold change /veh GIMAP4 (11747438_a_at) / RFU KRT8 (11758183_x_at) / Fold change /veh KRT8 (11758183_x_at) / RFU CNN1 (11734310_a_at) / Fold change /veh CNN1 (11734310_a_at) / RFU VPS37D (11726825_at) / Fold change /veh VPS37D (11726825_at) / RFU C10orf10 (11716522_x_at) / Fold change /veh C10orf10 (11716522_x_at) / RFU KIR2DL2 /// KIR2DL4 /// KIR2DL5A /// KIR2DL5B /// KIR2DS1 /// KIR2DS2 /// KIR2DS3 /// KIR2DS4 /// KIR3DL3 /// KIR3DL3 /// KIR3DS1 (11738374_at) / Fold change /veh KIR2DL2 /// KIR2DL4 /// KIR2DL5A /// KIR2DL5B /// KIR2DS1 /// KIR2DS2 /// KIR2DS3 /// KIR2DS4 /// KIR3DL3 /// KIR3DL3 /// KIR3DS1 (11738374_at) / RFU C1QL1 (11718748_at) / Fold change /veh C1QL1 (11718748_at) / RFU TMPRSS4 (11747572_a_at) / Fold change /veh TMPRSS4 (11747572_a_at) / RFU HAMP (11756126_x_at) / Fold change /veh HAMP (11756126_x_at) / RFU RNFT2 (11725882_a_at) / Fold change /veh RNFT2 (11725882_a_at) / RFU NR4A2 (11747474_a_at) / Fold change /veh NR4A2 (11747474_a_at) / RFU ABCC12 (11746883_a_at) / Fold change /veh ABCC12 (11746883_a_at) / RFU TMEM136 (11760407_x_at) / Fold change /veh TMEM136 (11760407_x_at) / RFU CLDN22 /// WWC2 (11732394_at) / Fold change /veh CLDN22 /// WWC2 (11732394_at) / RFU HLA-DPB1 (11760878_x_at) / Fold change /veh HLA-DPB1 (11760878_x_at) / RFU SPINT1 (11716480_a_at) / Fold change /veh SPINT1 (11716480_a_at) / RFU GAP43 (11754022_s_at) / Fold change /veh GAP43 (11754022_s_at) / RFU A4GNT (11735810_at) / Fold change /veh A4GNT (11735810_at) / RFU PRB3 (11715151_x_at) / Fold change /veh PRB3 (11715151_x_at) / RFU TUBB4B (11761932_at) / Fold change /veh TUBB4B (11761932_at) / RFU CAPN14 (11732068_a_at) / Fold change /veh CAPN14 (11732068_a_at) / RFU TMCC2 (11721928_a_at) / Fold change /veh TMCC2 (11721928_a_at) / RFU IRGQ (11745062_a_at) / Fold change /veh IRGQ (11745062_a_at) / RFU FAM174B (11720279_a_at) / Fold change /veh FAM174B (11720279_a_at) / RFU TMPRSS4 (11748680_a_at) / Fold change /veh TMPRSS4 (11748680_a_at) / RFU FAM212B (11763350_a_at) / Fold change /veh FAM212B (11763350_a_at) / RFU PLEKHG5 (11743358_a_at) / Fold change /veh PLEKHG5 (11743358_a_at) / RFU ZSCAN30 (11745921_a_at) / Fold change /veh ZSCAN30 (11745921_a_at) / RFU CMKLR1 (11741424_a_at) / Fold change /veh CMKLR1 (11741424_a_at) / RFU LOC101060620 /// MAPK8IP1 (11723275_at) / Fold change /veh LOC101060620 /// MAPK8IP1 (11723275_at) / RFU SPTSSB (11747773_x_at) / Fold change /veh SPTSSB (11747773_x_at) / RFU PRSS12 (11739890_at) / Fold change /veh PRSS12 (11739890_at) / RFU BIN1 (11741810_x_at) / Fold change /veh BIN1 (11741810_x_at) / RFU WNT11 (11732464_a_at) / Fold change /veh WNT11 (11732464_a_at) / RFU C10orf10 (11716521_a_at) / Fold change /veh C10orf10 (11716521_a_at) / RFU C5orf56 (11738089_at) / Fold change /veh C5orf56 (11738089_at) / RFU CYB561 (11721691_x_at) / Fold change /veh CYB561 (11721691_x_at) / RFU ANKRD19P (11752326_a_at) / Fold change /veh ANKRD19P (11752326_a_at) / RFU OR2T12 /// OR2T33 /// OR2T8 (11738714_s_at) / Fold change /veh OR2T12 /// OR2T33 /// OR2T8 (11738714_s_at) / RFU VCAN (11748164_a_at) / Fold change /veh VCAN (11748164_a_at) / RFU JSRP1 (11732532_at) / Fold change /veh JSRP1 (11732532_at) / RFU KRTAP10-11 (11738290_x_at) / Fold change /veh KRTAP10-11 (11738290_x_at) / RFU MYO3A (11730013_a_at) / Fold change /veh MYO3A (11730013_a_at) / RFU EBF3 (11725865_a_at) / Fold change /veh EBF3 (11725865_a_at) / RFU CAMK2N1 (11719241_x_at) / Fold change /veh CAMK2N1 (11719241_x_at) / RFU C5orf56 (11738088_a_at) / Fold change /veh C5orf56 (11738088_a_at) / RFU OLFML3 (11715873_a_at) / Fold change /veh OLFML3 (11715873_a_at) / RFU LOC100653217 /// NTM (11731650_a_at) / Fold change /veh LOC100653217 /// NTM (11731650_a_at) / RFU MAPK11 (11762145_a_at) / Fold change /veh MAPK11 (11762145_a_at) / RFU FIZ1 (11724087_x_at) / Fold change /veh FIZ1 (11724087_x_at) / RFU OASL (11726364_x_at) / Fold change /veh OASL (11726364_x_at) / RFU SOX15 (11748057_x_at) / Fold change /veh SOX15 (11748057_x_at) / RFU CD79A (11719716_a_at) / Fold change /veh CD79A (11719716_a_at) / RFU HIST1H1D (11736915_at) / Fold change /veh HIST1H1D (11736915_at) / RFU CASKIN2 (11723855_a_at) / Fold change /veh CASKIN2 (11723855_a_at) / RFU LOC730098 (11760151_x_at) / Fold change /veh LOC730098 (11760151_x_at) / RFU OR4N2 (11742367_at) / Fold change /veh OR4N2 (11742367_at) / RFU PRRT2 (11749266_a_at) / Fold change /veh PRRT2 (11749266_a_at) / RFU SNX32 (11753110_a_at) / Fold change /veh SNX32 (11753110_a_at) / RFU CDHR5 (11726645_a_at) / Fold change /veh CDHR5 (11726645_a_at) / RFU RCAN1 (11760418_a_at) / Fold change /veh RCAN1 (11760418_a_at) / RFU FAM167A (11723789_a_at) / Fold change /veh FAM167A (11723789_a_at) / RFU FAM26E (11764081_at) / Fold change /veh FAM26E (11764081_at) / RFU ISYNA1 (11749810_s_at) / Fold change /veh ISYNA1 (11749810_s_at) / RFU ACY1 (11761880_at) / Fold change /veh ACY1 (11761880_at) / RFU 11764098_at / Fold change /veh 11764098_at / RFU SAMD14 (11745864_x_at) / Fold change /veh SAMD14 (11745864_x_at) / RFU NPB (11741838_a_at) / Fold change /veh NPB (11741838_a_at) / RFU TMPRSS6 (11731388_a_at) / Fold change /veh TMPRSS6 (11731388_a_at) / RFU KRTAP10-2 (11738614_at) / Fold change /veh KRTAP10-2 (11738614_at) / RFU ARHGAP8 /// PRR5-ARHGAP8 (11727945_x_at) / Fold change /veh ARHGAP8 /// PRR5-ARHGAP8 (11727945_x_at) / RFU KRTAP5-7 /// NADSYN1 (11734609_at) / Fold change /veh KRTAP5-7 /// NADSYN1 (11734609_at) / RFU RASL12 (11751679_a_at) / Fold change /veh RASL12 (11751679_a_at) / RFU CDKN2B (11736163_a_at) / Fold change /veh CDKN2B (11736163_a_at) / RFU PRF1 (11729649_at) / Fold change /veh PRF1 (11729649_at) / RFU, ZNF638 /// ZNF638-IT1 / Fold change vs veh, ZNF638 /// ZNF638-IT1 / RFU, PANK3 / Fold change vs veh, PANK3 / RFU, SH3YL1 / Fold change vs veh, SH3YL1 / RFU, ZEB2 / Fold change vs veh, ZEB2 / RFU, NRIP1 / Fold change vs veh, NRIP1 / RFU, PTTG1IP / Fold change vs veh, PTTG1IP / RFU, CAPN2 / Fold change vs veh, CAPN2 / RFU, MED14 / Fold change vs veh, MED14 / RFU, SNORA58 / Fold change vs veh, SNORA58 / RFU, C1orf63 / Fold change vs veh, C1orf63 / RFU, LRRFIP1 / Fold change vs veh, LRRFIP1 / RFU, NDUFAF7 / Fold change vs veh, NDUFAF7 / RFU, SLC12A2 / Fold change vs veh, SLC12A2 / RFU, IBTK / Fold change vs veh, IBTK / RFU, ESF1 / Fold change vs veh, ESF1 / Fold change vs veh, TMEM50B / RFU, TAOK1 / Fold change vs veh, TAOK1 / RFU, ACBD3 / Fold change vs veh, ACBD3 / RFU, TMA16 / Fold change vs veh, TMA16 / RFU, RWDD3 / Fold change vs veh, RWDD3 / RFU, BCAT1 / Fold change vs veh, BCAT1 / RFU, EDEM3 / Fold change vs veh, EDEM3 / RFU, TMEM33 / Fold change vs veh, TMEM33 / RFU, WDR75 / Fold change vs veh, WDR75 / RFU, AHCTF1 / Fold change vs veh, AHCTF1 / RFU, TFRC / Fold change vs veh, TFRC / RFU, ZDHHC17 / Fold change vs veh, ZDHHC17 / RFU, NOM1 / Fold change vs veh, NOM1 / RFU, ARL8B / Fold change vs veh, ARL8B / RFU, ZBTB11 / Fold change vs veh, ZBTB11 / RFU, TAMM41 / Fold change vs veh, TAMM41 / RFU, KIAA1704 /// LOC100996395 / Fold change vs veh, KIAA1704 /// LOC100996395 / RFU, ING1 / Fold change vs veh, ING1 / RFU, TRMT61B / Fold change vs veh, TRMT61B / RFU, FUBP3 / Fold change vs veh, FUBP3 / RFU, TP53 / Fold change vs veh, TP53 / RFU, TNKS2 / Fold change vs veh, TNKS2 / RFU, ZFP14 / Fold change vs veh, ZFP14 / RFU, ACTR2 / Fold change vs veh, ACTR2 / RFU, PPP3R1 / Fold change vs veh, PPP3R1 / RFU, PIK3R1 / Fold change vs veh, PIK3R1 / RFU, HNRNPA1 / Fold change vs veh, HNRNPA1 / RFU, RNF170 / Fold change vs veh, RNF170 / RFU, ZNF28 / Fold change vs veh, ZNF28 / RFU, RNGTT / Fold change vs veh, RNGTT / RFU, OGT / Fold change vs veh, OGT / RFU, BRD1 / Fold change vs veh, BRD1 / RFU, MARS / Fold change vs veh, MARS / RFU, ZNF655 / Fold change vs veh, ZNF655 / RFU, FAHD1 / Fold change vs veh, FAHD1 / RFU, BDP1 / Fold change vs veh, BDP1 / RFU, LRRCC1 / Fold change vs veh, LRRCC1 / RFU, ARID1A / Fold change vs veh, ARID1A / RFU, ZNF146 / Fold change vs veh, ZNF146 / RFU, ZNF330 / Fold change vs veh, ZNF330 / RFU, GPN3 / Fold change vs veh, GPN3 / RFU, C9orf123 / Fold change vs veh, C9orf123 / RFU, N4BP2L2 / Fold change vs veh, N4BP2L2 / RFU, ARFIP1 / Fold change vs veh, ARFIP1 / RFU, FAM179B / Fold change vs veh, FAM179B / RFU, BCL10 / Fold change vs veh, BCL10 / RFU, UHRF1BP1L / Fold change vs veh, UHRF1BP1L / RFU, BET1 / Fold change vs veh, BET1 / RFU, CNOT2 / Fold change vs veh, CNOT2 / RFU, ZNF268 / Fold change vs veh, ZNF268 / Fold change vs veh, ZNF507 / RFU, DGCR2 / Fold change vs veh, DGCR2 / RFU, WDSUB1 / Fold change vs veh, WDSUB1 / Fold change vs veh, HSP90B1 /// MIR3652 / RFU, ADSS / Fold change vs veh, ADSS / RFU, GK / Fold change vs veh, GK / RFU, ZNF148 / Fold change vs veh, ZNF148 / RFU, TAF9 / Fold change vs veh, TAF9 / RFU, SLC1A5 / Fold change vs veh, SLC1A5 / RFU, SLMO2 / Fold change vs veh, SLMO2 / RFU, ABCC4 / Fold change vs veh, ABCC4 / RFU, LOC101060439 /// RAP1B / Fold change vs veh, LOC101060439 /// RAP1B / RFU, RFX7 / Fold change vs veh, RFX7 / RFU, GTPBP10 / Fold change vs veh, GTPBP10 / RFU, CNEP1R1 / Fold change vs veh, CNEP1R1 / RFU, BIVM-ERCC5 /// ERCC5 / Fold change vs veh, BIVM-ERCC5 /// ERCC5 / RFU, ILF3 / Fold change vs veh, ILF3 / RFU 11762660_at / Fold change /veh 11762660_at / RFU VCAN (11757783_s_at) / Fold change /veh VCAN (11757783_s_at) / RFU DDX43 (11728927_at) / Fold change /veh DDX43 (11728927_at) / RFU KRT8 (11758188_x_at) / Fold change /veh KRT8 (11758188_x_at) / RFU NKD1 (11759106_at) / Fold change /veh NKD1 (11759106_at) / RFU SRD5A1 (11742802_a_at) / Fold change /veh SRD5A1 (11742802_a_at) / RFU TPSAB1 /// TPSB2 (11721975_s_at) / Fold change /veh TPSAB1 /// TPSB2 (11721975_s_at) / RFU GSTM3 (11746129_a_at) / Fold change /veh GSTM3 (11746129_a_at) / RFU IL23R (11737362_x_at) / Fold change /veh IL23R (11737362_x_at) / RFU TMEM51 (11727254_a_at) / Fold change /veh TMEM51 (11727254_a_at) / RFU PIWIL2 (11732686_x_at) / Fold change /veh PIWIL2 (11732686_x_at) / RFU ORM1 (11744905_x_at) / Fold change /veh ORM1 (11744905_x_at) / RFU CCDC152 (11743942_at) / Fold change /veh CCDC152 (11743942_at) / RFU ECM1 (11717891_a_at) / Fold change /veh ECM1 (11717891_a_at) / RFU IL23R (11748794_a_at) / Fold change /veh IL23R (11748794_a_at) / RFU TNFAIP8L3 (11732012_x_at) / Fold change /veh TNFAIP8L3 (11732012_x_at) / RFU MBOAT4 (11741988_at) / Fold change /veh MBOAT4 (11741988_at) / RFU 11764193_at / Fold change /veh 11764193_at / RFU TMEM53 (11763286_at) / Fold change /veh TMEM53 (11763286_at) / RFU MAGEB2 (11727129_at) / Fold change /veh MAGEB2 (11727129_at) / RFU TMEM200A (11744735_a_at) / Fold change /veh TMEM200A (11744735_a_at) / RFU CCDC152 (11751479_a_at) / Fold change /veh CCDC152 (11751479_a_at) / RFU FAM211A (11726209_a_at) / Fold change /veh FAM211A (11726209_a_at) / RFU RGS16 (11746705_a_at) / Fold change /veh RGS16 (11746705_a_at) / RFU VCAN (11755009_s_at) / Fold change /veh VCAN (11755009_s_at) / RFU RHOB (11743442_s_at) / Fold change /veh RHOB (11743442_s_at) / RFU RGS16 (11720943_a_at) / Fold change /veh RGS16 (11720943_a_at) / RFU RGS16 (11720944_at) / Fold change /veh RGS16 (11720944_at) / RFU, VPS4B / Fold change vs veh, VPS4B / RFU, CREB1 / Fold change vs veh, CREB1 / RFU, DNAJC13 / Fold change vs veh, DNAJC13 / RFU, GNAQ / Fold change vs veh, GNAQ / RFU, CDK5R1 / Fold change vs veh, CDK5R1 / RFU, ZRANB3 / Fold change vs veh, ZRANB3 / RFU, CUL4A / Fold change vs veh, CUL4A / RFU, CCNY / Fold change vs veh, CCNY / RFU, UFL1 / Fold change vs veh, UFL1 / RFU, COG3 / Fold change vs veh, COG3 / RFU, DIAPH2 / Fold change vs veh, DIAPH2 / RFU, SKA2 / Fold change vs veh, SKA2 / RFU, AFF3 / Fold change vs veh, AFF3 / RFU, LMF1 / Fold change vs veh, LMF1 / RFU, IPO11 / Fold change vs veh, IPO11 / RFU, DFFB / Fold change vs veh, DFFB / RFU, FOXP1 / Fold change vs veh, FOXP1 / RFU, CARD8 / Fold change vs veh, CARD8 / RFU, STRN3 / Fold change vs veh, STRN3 / RFU, ADK / Fold change vs veh, ADK / RFU, RASSF2 / Fold change vs veh, RASSF2 / RFU, WIPF1 / Fold change vs veh, WIPF1 / RFU, LARP1B / Fold change vs veh, LARP1B / RFU, RASA1 / Fold change vs veh, RASA1 / RFU, RB1 / Fold change vs veh, RB1 / RFU, PPFIA1 / Fold change vs veh, PPFIA1 / RFU, MAT2A / Fold change vs veh, MAT2A / RFU, CCT5 / Fold change vs veh, CCT5 / RFU, WDR92 / Fold change vs veh, WDR92 / RFU, CUX1 / Fold change vs veh, CUX1 / RFU, TTC7A / Fold change vs veh, TTC7A / RFU, TMEM135 / Fold change vs veh, TMEM135 / RFU, DEPTOR / Fold change vs veh, DEPTOR / RFU, CPM / Fold change vs veh, CPM / RFU, DNAJB6 / Fold change vs veh, DNAJB6 / RFU, CACNA2D3 / Fold change vs veh, CACNA2D3 / RFU, DTX4 / Fold change vs veh, DTX4 / RFU, TFCP2 / Fold change vs veh, TFCP2 / RFU, GMCL1 /// GMCL1P1 / Fold change vs veh, GMCL1 /// GMCL1P1 / RFU, AEBP2 / Fold change vs veh, AEBP2 / RFU, SNHG1 /// SNORD22 /// SNORD25 /// SNORD26 /// SNORD27 /// SNORD28 /// SNORD29 /// SNORD31 / Fold change vs veh, SNHG1 /// SNORD22 /// SNORD25 /// SNORD26 /// SNORD27 /// SNORD28 /// SNORD29 /// SNORD31 / Fold change (Aza/veh), C12orf56 (ProbeSet 11735607_a_at) / Fold change (ACY-1035/veh), C12orf56 (ProbeSet 11735607_a_at) / Fold change (Aza/veh), FGFR1OP (ProbeSet 11751329_s_at) / Fold change (ACY-1035/veh), FGFR1OP (ProbeSet 11751329_s_at) / Fold change (Aza/veh), VPS36 (ProbeSet 11739960_a_at) / Fold change (ACY-1035/veh), VPS36 (ProbeSet 11739960_a_at) / RFU SYPL1 (11715823_x_at) / Fold change /veh SYPL1 (11715823_x_at) / RFU IGFBP7 (11715501_s_at) / Fold change /veh IGFBP7 (11715501_s_at) / RFU REEP3 (11722064_at) / Fold change /veh REEP3 (11722064_at) / RFU IGLL1 (11728026_x_at) / Fold change /veh IGLL1 (11728026_x_at): dose or concentration left out as unconfirmed
Settings: MV-4-11 cells, 48 hours

## Nc1ncn([C@@H]2O[C@H](CO)[C@@H](O)[C@H]2O)c(=O)n1 [azacitidine]
  Fold change /veh TMEM200A (11744735_a_at): 1.56
